Experimental data published in US6610677B2, “Pyrazole compounds useful as protein kinase inhibitors” (Vertex Pharmaceuticals Incorporated, priority 2000, dated 2003).
pKi: −log10 of the molar value.

Target: T1, GSK-3β (AA 1-420) (Homo sapiens, UniProt P49841)
T1 construct: GSK-3β (AA 1-420)
Assay: Ki determination for the inhibition of GSK-3 (coupled enzyme system)
Assay type: biochemical
Conditions: 20 μM ATP, 300 μM peptide, 20 nM GSK-3β, 30° C
Method: Compounds were screened for their ability to inhibit GSK-3β (AA 1-420) activity using a standard coupled enzyme system (Fox et al. (1998) Protein Sci. 7, 2249). Reactions were carried out in a solution containing 100 mM HEPES (pH 7.5), 10 mM MgCl2, 25 mM NaCl, 300 μM NADH, 1 mM DTT and 1.5% DMSO. Final substrate concentrations in the assay were 20 μM ATP (Sigma Chemicals, St Louis, Mo.) and 300 μM peptide (HSSPHQS(PO3H2)EDEEE, American Peptide, Sunnyvale, Calif.). Reactions were carried out at 30° C. and 20 nM GSK-3β. Final concentrations of the components of the coupled enzyme system were 2.5 mM phosphoenolpyruvate, 300 μM NADH, 30 μg/ml pyruvate kinase and 10 μg/ml lactate dehydrogenase.
An assay stock buffer solution was prepared containing all of the reagents listed above with the exception of ATP and the test compound of interest. The assay stock buffer solution (175 μl) was incubated in a 96 well plate with 5 μl of the test compound of interest at final concentrations spanning 0.002 μM to 30 μM at 30° C. for 10 min. Typically, a 12 point titration was conducted by preparing serial dilutions (from 10 mM compound stocks) with DMSO of the test compounds in daughter plates. The reaction was initiated by the addition of 20 μl of ATP (final concentration 20 μM). Rates of reaction were obtained using a Molecular Devices Spectramax plate reader (Sunnyvale, Calif.) over 10 min at 30° C. The Ki values were determined from the rate data as a function of inhibitor concentration.

T1 sequence (P49841 whole entry, the tested form may be a part): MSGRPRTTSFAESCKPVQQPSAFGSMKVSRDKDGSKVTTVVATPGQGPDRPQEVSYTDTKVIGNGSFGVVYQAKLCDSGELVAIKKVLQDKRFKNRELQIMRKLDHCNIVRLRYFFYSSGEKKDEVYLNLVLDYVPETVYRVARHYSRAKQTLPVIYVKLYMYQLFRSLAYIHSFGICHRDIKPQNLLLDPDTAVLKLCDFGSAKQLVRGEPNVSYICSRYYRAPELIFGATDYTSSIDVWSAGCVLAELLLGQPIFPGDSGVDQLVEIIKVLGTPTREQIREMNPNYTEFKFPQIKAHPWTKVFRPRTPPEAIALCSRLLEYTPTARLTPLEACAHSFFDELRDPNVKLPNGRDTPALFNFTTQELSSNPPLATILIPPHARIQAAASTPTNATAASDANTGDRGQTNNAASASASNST

SMILES | pKi
Fc1cc(F)c2[nH]nc(Nc3nc(-c4ccccc4C(F)(F)F)cc4ccccc34)c2c1 [Compound V-3, (5,7-Difluoro-1H-indazol-3-yl)-[3-(2-trifluoromethyl-phenyl)-isoquinolin-1-yl]-amine] | > 7.00
FC(F)(F)c1ccccc1-c1cc(Nc2n[nH]c3ccccc23)c2ccccc2n1 [Compound V-7, (1H-Indazol-3-yl)-[2-(2-trifluoromethyl-phenyl)-quinolin-4-yl]-amine] | 6.00 to 7.00
Fc1cc(F)c2[nH]nc(Nc3cc(-c4ccccc4C(F)(F)F)nc4ccccc34)c2c1 [Compound V-8, (5,7-Difluoro-1H-indazol-3-yl)-[2-(2-trifluoromethyl-phenyl)-quinolin-4-yl]-amine] | 4.70 to 6.00
Clc1ccccc1-c1nc2c(c(Nc3n[nH]c4ccccc34)n1)CCCCC2 [II-2, [2-(2-Chloro-phenyl)-6,7,8,9-tetrahydro-5H-cycloheptapyrimidin-4-yl]-(1H-indazol-3-yl)-amine] | > 7.00
Fc1ccc2[nH]nc(Nc3nc(-c4ccccc4Cl)nc4c3CCCCC4)c2c1 [II-5, [2-(2-Chloro-phenyl)-6,7,8,9-tetrahydro-5H-cycloheptapyrimidin-4-yl]-(5-fluoro-1H-indazol-3-yl)-amine] | > 7.00
Fc1ccc2[nH]nc(Nc3nc(-c4ccccc4C(F)(F)F)nc4c3CN(Cc3ccccc3)CC4)c2c1 [II-12, (6-Benzyl-2-(2-trifluoromethyl-phenyl)-5,6,7,8-tetrahydro-pyrido[4,3-d]pyrimidin-4-yl)-(5-fluoro-1H-indazol-3-yl)-amine] | > 7.00

Other lines, results leading:

pKi | SMILES
> 7.00 | Fc1ccc2[nH]nc(Nc3nc(-c4ccccc4C(F)(F)F)nc4c3CCNC4)c2c1 [II-3, (5-Fluoro-1H-indazol-3-yl)-[2-(2-trifluoromethyl-phenyl)-5,6,7,8-tetrahydro-pyrido[3,4-d]pyrimidin-4-yl]-amine]
> 7.00 | Fc1cccc2c(Nc3nc(-c4ccccc4Cl)nc4c3CCCCC4)n[nH]c12 [II-4, [2-(2-Chloro-phenyl)-6,7,8,9-tetrahydro-5H-cycloheptapyrimidin-4-yl]-(7-fluoro-1H-indazol-3-yl)-amine]
> 7.00 | Fc1cc(F)c2[nH]nc(Nc3nc(-c4ccccc4Cl)nc4c3CCCCC4)c2c1 [II-6, [2-(2-Chloro-phenyl)-6,7,8,9-tetrahydro-5H-cycloheptapyrimidin-4-yl]-(5,7-difluoro-1H-indazol-3-yl)-amine]
> 7.00 | Fc1cccc2c(Nc3nc(-c4ccccc4C(F)(F)F)nc4c3CCCC4)n[nH]c12 [II-7, (7-Fluoro-1H-indazol-3-yl)-[2-(2-trifluoromethyl-phenyl)-5,6,7,8-tetrahydroquinazolin-4-yl]-amine]
> 7.00 | Fc1ccc2[nH]nc(Nc3nc(-c4ccccc4C(F)(F)F)nc4c3CCCC4)c2c1 [II-8, (5-Fluoro-1H-indazol-3-yl)-[2-(2-trifluoromethyl-phenyl)-5,6,7,8-tetrahydroquinazolin-4-yl]-amine]
> 7.00 | Fc1cc(F)c2[nH]nc(Nc3nc(-c4ccccc4C(F)(F)F)nc4c3CCCC4)c2c1 [II-9, (5,7-Difluoro-1H-indazol-3-yl)-[2-(2-trifluoromethyl-phenyl)-5,6,7,8-tetrahydroquinazolin-4-yl]-amine]
> 7.00 | Fc1cc(F)c2[nH]nc(Nc3nc(-c4ccccc4C(F)(F)F)nc4c3CCCCC4)c2c1 [II-11, (5,7-difluoro-1H-indazol-3-yl)-[2-(2-trifluoromethyl-phenyl)-6,7,8,9-tetrahydro-5H-cycloheptapyrimidin-4-yl]-amine]
> 7.00 | FC(F)(F)c1ccccc1-c1nc2c(c(Nc3n[nH]c4ccccc34)n1)CCCCC2 [II-13, (1H-Indazol-3-yl)-[2-(2-trifluoromethyl-phenyl)-6,7,8,9-tetrahydro-5H-cycloheptapyrimidin-4-yl]-amine]
> 7.00 | Fc1cccc2c(Nc3nc(-c4ccccc4C(F)(F)F)nc4c3CCCCC4)n[nH]c12 [II-14, (7-Fluoro-1H-indazol-3-yl)-[2-(2-trifluoromethyl-phenyl)-6,7,8,9-tetrahydro-5H-cycloheptapyrimidin-4-yl]-amine]
